Entries after “also recorded” stand apart in the source; their conditions may differ.
What was measured:
Type in all cases: cell-based
Aiolos and Ikaros [1] = test: Aiolos and Ikaros expression in Namalwa cells, Western blot; settings: monomer alone, 100 nM-10 μM, 24 h
Procedure: (§1) Namalwa, Ramosm HeLa, MCF7, or HT29 HCT116 cells (2.5-3×10^6) were treated for 24 hours with the indicated compounds solubilized in DMSO. The cells were washed in ice-cold PBS and were then lysed in RIPA lysis buffer (150 mM NaCl, 5 mM EDTA, 1% NP-40, 0.5% sodium deoxycholate, 0.1% SDS, 50 mM Tris, pH 8.0.) with Roche protease inhibitor complete cocktail and phosphatase inhibitors (10 mM sodium fluoride, 10 mM sodium pyrophosphate, 1 mM sodium orthovanadate and 20 mM β-glycerophosphate). The total protein concentrations were determined by Bradford Protein Assay (Pierce) and 10-20 μg of protein was loaded onto 4-15% Tris-Glycine gradient gels (Biorad). After standard gel electrophoresis, the separated proteins were transferred to PVDF membrane by wet transfer. The immunoblots were then blocked for 1 hour in 5% skim milk in TBST or 5% BSA in TBST, according to manufacturer's instructions, before an overnight incubation at 4° C. with indicated antibodies and membranes. Membranes were then incubated with the appropriate horseradish peroxidase-conjugated secondary antibodies (1:5,000 dilution) for 1 h at room temperature and the bands were visualized using the Clarity Max Western ECL Substrate (Biorad) and the ChemiDoc Imaging System (Biorad). Signal was detected with ECL Western Blotting Substrate (Pierce) and X-ray film processed with a Konica SRX-101 X-ray film processor or captured by Bio-Rad's Chemidoc Imaging system.
(§2) Namalwa (FIG. 78) or Ramos (FIG. 79) cells (5×10^6) were treated for 24 h with the compounds solubilized in DMSO. Compounds were added at 100 nM-10 μM each. Standardized protein samples were electrophoresed and imaged as described in the immunoblotting section above. FIGS. 78 and 79 depict the effects of the E3 ubiquitin ligase CURE-PRO monomer ligands (100 nM-10 μM, 24 h) targeting Cereblon on the expression of Aiolos and Ikaros, two downstream proteins that are known to be ubiquitinated and degraded after IMiDs bind to CRBN.

Aiolos and Ikaros [2] = test: Aiolos and Ikaros expression in Ramos cells, Western blot; settings: monomer alone, 100 nM-10 μM, 24 h
Procedure: as §1, §2

BRD4 = BRD4 (Homo sapiens, UniProt O60885); test: CURE-PRO-mediated BRD4 degradation in HeLa cells, WES capillary electrophoresis (ProteinSimple); set-up: endogenous in cells; host or cells: HeLa; settings: co-dosed with CRBN ligand 8047, HeLa, 24 h, 100 nM-10 μM each
Procedure: All cell lines were purchased from ATCC or DSMZ and grown at 37° C. with 5% CO2. Human HeLa cells were cultured in complete growth medium (Dulbecco's modified Eagle's medium (DMEM) supplemented with 10% FBS); MCF7 cells were cultured in complete growth medium (Dulbecco's modified Eagle's medium (DMEM) supplemented with 10% FBS and 0.01 mg/ml human recombinant insulin (Sigma Aldrich); Namalwa and Ramos cells were cultured in complete growth medium (RPMI 1640 medium supplemented with 10% FBS); HCT116 and HT29 cells were cultured in complete growth medium (McCoy's 5a Medium supplemented with 10% FBS). For cellular degradation of BRD4 studies cells were seeded in a 12-well plate at 70-80% confluency, allowed to attach overnight, and incubated with the indicated compounds for the indicated time. When indicated, a 15-minute pretreatment with 10 μM pomalidomide, 10 μM VHL298, 10 μM Nutlin3a, 1 μM MG-132 or 1 μM Carfilzomib was performed before the addition of CURE-PROs. For washout studies, after CURE-PRO treatment, media was aspirated and incubated with complete medium for the indicated time before lysis.
(§3) WES Simple analysis was performed on WES system (ProteinSimple-Biotechne) according to the manufacturer's instructions. Total protein concentrations of cell lysates were determined by the Pierce BCA kit (Thermo Fisher). 3 μL of 0.3 μg/μL of the protein lysate was loaded onto a 12- to 230-kDa WES assay plate (ProteinSimple) where 300 nL sample was withdrawn through a capillary, subjected to electrophoretic separation of proteins by size, and followed by the simultaneous, HRP-based detection of proteins using the Anti-Rabbit Detection Module (Proteinsimple: #DM-001). The electropherograms were checked then the automatic peak detection was manually corrected if it was required.
HeLa cells (2.5×10^6) were treated for 4-24 hours with the compounds solubilized in DMSO. After 4 hours, indicated points were washed and cells were left in full growth media. Compounds were added at 10 μM each. Standardized protein samples were electrophoresed and imaged as described in the WES ProteinSimple section above. FIGS. 44 and 45 depict the time-dependence of CURE-PRO-mediated BRD4 degradation with the BRD-E52 ligand (FIG. 44) and BRD-E72 ligand (FIG. 45), both JQ1 derivatives comprising of boronic acid linkers, and the CRBN binding ligands (8046, 8047, and 8066), pomalidomide derivatives comprising diol linkers.
HeLa cells (2.5×10^6) were treated for 24 hours with the compounds solubilized in DMSO. Compounds were added at 100 nM-10 μM each. Standardized protein samples were electrophoresed and imaged as described in the WES ProteinSimple section above. FIG. 46 depicts the concentration-dependence of CURE-PRO-mediated BRD4 degradation and the requirement for monomer dimerization.

MV-4-11 cells = test: CellTiter-Glo cell viability, MV-4-11 cells; settings: monomer alone, MV-4-11, 24 h, 1 nM-100 μM
Procedure: CellTiter-Glo® 2.0 Cell Viability Assay (Promega) was carried out following the manufacturer's recommendations. Cells were seeded at a density of 1000 cells/well in a white 96 well plates (Corning, #3917) in a total volume of 100 μl with respective monomers, combinations of BRD ligands together with E3 ligase ligands or vehicle control treatment. After a 72 h incubation, 100 ul of the CellTiter-Glo® substrate was added per well and luminescence was read on a Spectramax M5 (Molecular Devices). Dose-response curves were generated using Graphpad Prism software.
MV-4-11 cells (5×10^4) were treated for 24 hours with the sample compounds solubilized in DMSO. The compounds were added at 1 nM-100 μM each. Cellular viability was determined using the CellTiter-Glo® Luminescent Cell Viability Assay (Promega) described above. FIGS. 19-22 depict the CURE-PRO-mediated loss of cellular viability for BRD monomers (JQ1 derivatives comprising of catechol linkers), and CRBN ligand, 8049 (pomalidomide derivatives comprising boronic acid linkers) combined in a 1:1 ratio.
MV-4-11 cells (1×10^4) were treated for 72 hours with the compounds solubilized in DMSO. Compounds were added at 10 nM-100 μM each. Cellular viability was determined using the CellTiter-Glo® Luminescent Cell Viability Assay (Promega) described above. FIGS. 47-54 depict the CURE-PRO-mediated loss of cellular viability for BRD monomers (JQ1 derivatives comprising of boronic acid linkers), and CRBN ligands, 8046, 8047 and 8066 (pomalidomide derivatives comprising diol linkers) combined in a 1:1 ratio.

c-MYC [3] = molecular target: T1, c-MYC (Homo sapiens, UniProt P01106); test: CURE-PRO-mediated c-MYC degradation in MCF7 cells, WES (ProteinSimple); set-up: endogenous in cells
Procedure: as §3
Compounds were added at 1 μM-10 μM each. Standardized protein samples were electrophoresed and imaged as detected on a WES capillary electrophoresis instrument (Proteinsimple), as described above. c-MYC monomers, MYC-N5 (FIG. 94) and MYC-N2 (FIG. 95) (10058-F4 derivatives comprising diol linkers), and VHL ligands, 8297 and 8298 (VH-298 derivatives comprising boronic acid linkers) were combined in a 1:1 ratio.

c-MYC [4] = molecular target: T1, c-MYC; test: Summary of C-MYC degradation by CURE-PRO pairs, estimated from Western Blot or WES; set-up: endogenous in cells; host or cells: HT29
Procedure: as §1, §3
A black check mark indicates efficacy of 30% to 70% or higher protein degradation.

[5] = 1:1 with VHL ligand 8297, MCF7, 24 h, 1 μM-10 μM each
[6] = 1:1 with VHL ligand 8298, MCF7, 24 h, 1 μM-10 μM each
[7] = c-MYC monomer alone, MCF7, 24 h, 1 μM-10 μM

T1 sequence (P01106 whole entry): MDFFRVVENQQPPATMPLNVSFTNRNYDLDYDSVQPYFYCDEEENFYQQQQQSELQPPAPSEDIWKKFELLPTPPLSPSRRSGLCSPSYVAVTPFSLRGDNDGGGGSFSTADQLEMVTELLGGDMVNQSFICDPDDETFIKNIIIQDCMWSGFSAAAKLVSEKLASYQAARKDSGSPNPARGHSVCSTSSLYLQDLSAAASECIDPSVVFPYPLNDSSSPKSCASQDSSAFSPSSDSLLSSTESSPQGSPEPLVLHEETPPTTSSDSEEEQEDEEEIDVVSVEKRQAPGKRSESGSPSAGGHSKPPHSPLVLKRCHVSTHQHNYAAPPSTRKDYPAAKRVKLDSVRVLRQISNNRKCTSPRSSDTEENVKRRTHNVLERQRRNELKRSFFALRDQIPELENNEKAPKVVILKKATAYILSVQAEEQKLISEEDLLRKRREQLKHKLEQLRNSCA

SMILES | expression of Aiolos and Ikaros (Aiolos and Ikaros [1]) | expression of Aiolos and Ikaros (Aiolos and Ikaros [2]) | other results
O=C1CCC(N2C(=O)c3cccc(CNC(=O)c4cccc(O)c4O)c3C2=O)C(=O)N1 (centres unmarked) [compound 8047, N-((2-(2,6-dioxopiperidin-3-yl)-1,3-dioxoisoindolin-4-yl)methyl)-2,3-dihydroxybenzamide] | largely maintain Aiolos and Ikaros expression levels | largely maintain Aiolos and Ikaros expression levels | –
O=C1CCC(N2C(=O)c3cccc(CNC(=O)C4C[C@H]5C[C@@H]4[C@H](O)[C@@H]5O)c3C2=O)C(=O)N1 (stereo in doubt) [compound 8066, (1S,4R,5R,6S)—N-((2-(2,6-dioxopiperidin-3-yl)-1,3-dioxoisoindolin-4-yl)methyl)-5,6-dihydroxybicyclo[2.2.1]heptane-2-carboxamide] | largely maintain Aiolos and Ikaros expression levels | largely maintain Aiolos and Ikaros expression levels | –
CCNC(=O)C[C@@H]1N=C(c2ccc(Sc3ccccc3)cc2)c2cc(OC)ccc2-n2c(C)nnc21 [BRD-E52C, N-ethyl-2-((4S)-8-methoxy-1-methyl-6-(4-(phenylthio)phenyl)-4H-benzo[f][1,2,4]triazolo[4,3-a][1,4]diazepin-4-yl)acetamide] | – | – | concentration-dependent BRD4 degradation (BRD4): failed to induce degradation even at 10 μM
O=C1CCC(N2C(=O)c3cccc(CNC(=O)c4ccc(B(O)O)cc4)c3C2=O)C(=O)N1 (centres unmarked) [compound 8048] | largely maintain Aiolos and Ikaros expression levels | largely maintain Aiolos and Ikaros expression levels | –
O=C1CCC(N2C(=O)c3cccc(CNC(=O)c4cccc(B(O)O)c4)c3C2=O)C(=O)N1 (centres unmarked) [compound 8049] | largely maintain Aiolos and Ikaros expression levels | largely maintain Aiolos and Ikaros expression levels | loss of cellular viability (MV-4-11 cells): little loss of viability was observed
O=C1CCC(N2C(=O)c3cccc(CNC(=O)c4ccc(O)c(O)c4)c3C2=O)C(=O)N1 (centres unmarked) [compound 8046, N-((2-(2,6-dioxopiperidin-3-yl)-1,3-dioxoisoindolin-4-yl)methyl)-3,4-dihydroxybenzamide] | largely maintain Aiolos and Ikaros expression levels | largely maintain Aiolos and Ikaros expression levels | –
CCc1ccc(/C=C2\SC(=O)N(CCCc3ccc(O)c(O)c3)C2=O)cc1 [MYC-N5] | – | – | c-MYC degradation (c-MYC [3]; [5]): no loss of c-MYC protein was observed; c-MYC degradation (c-MYC [3]; [6]): Degradation is observed; also recorded: caused degradation of c-MYC; c-MYC degradation (c-MYC [3]; [7]): no loss of c-MYC protein was observed; Degradation of C-MYC, combination with CRBN ligand 8049 (c-MYC [4]; Table 10, aromatic 1,2-diol MYC ligand + 8049): √ (A black check mark indicates efficacy of 30% to 70% or higher protein degradation)
CCc1ccc(/C=C2\SC(=O)N(Cc3cccc(O)c3O)C2=O)cc1 [MYC-N2] | – | – | c-MYC degradation (c-MYC [3]; [5]): Degradation is observed; also recorded: caused degradation of c-MYC; c-MYC degradation (c-MYC [3]; [6]): no loss of c-MYC protein was observed; c-MYC degradation (c-MYC [3]; [7]): no loss of c-MYC protein was observed; Degradation of C-MYC, combination with CRBN ligand 8048 (c-MYC [4]; Table 10, aromatic 1,2-diol MYC ligand + 8048): √ (A black check mark indicates efficacy of 30% to 70% or higher protein degradation)

— patent US20230285570A1, “THERAPEUTICALLY USEFUL CURE-PRO MOLECULES FOR E3 LIGASE MEDIATED DEGRADATION OF PROTEINS, AND METHODS OF MAKING AND USING THEM” (CORNELL UNIVERSITY, priority 2020, published 2023)
